Laboratory results: PubChem BioAssay AID1959 (Broad Institute, 2009)
Active and inactive are the calls of the source.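 How the source made its calls: active means growth-inhibition EC50 no more than tenfold above the top tested dose; inconclusive means flat fit between 30% and 70% inhibition, or unreliable fit; inactive means EC50 more than tenfold above the top tested dose.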

The compounds below were run on E. coli NEB5alpha growth, BacTiter-Glo luminescence, 4 h (assay: antibacterial activity against E. coli NEB5alpha – luminescence, counter-screen for MEX-5/POS-1 RNA-binding inhibitor project, dose response (AID 1959);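 further: pUC19-transformed ampicillin-resistant cells grown in LB with ampicillin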).
With O=C(N=c1ccn(-c2nc3ccccc3nc2NS(=O)(=O)c2ccccc2)cc1)c1ccccc1Cl the EC50 was > 11 µM (inactive).
For O=C(O)CCNc1ccc(NCCC(=O)O)c2c1C(=O)c1ccccc1C2=O, the EC50 was > 11 µM (inactive).
COc1ccc(-c2cn[nH]c2-c2ccc(OCC(=O)NN)cc2O)cc1OC was tested, and the EC50 was > 11 µM (inactive).
For N#CC(C#N)=Cc1cccn1-c1ccc(C(=O)O)cc1, the EC50 was > 11 µM (inactive).
In the case of Oc1ccc(-c2nc(-c3ccc(O)c(O)c3)cs2)cc1, the EC50 is reported as > 11 µM (inactive).
For CN1C(=O)C(=Cc2sc(=O)n(-c3ccccc3)c2N2CCCCC2)C(=O)N(C)C1=O, the EC50 was > 11 µM (inactive).
COC(=O)C1=C(C)N=C2SC(C#N)=C(N)N2C1c1cccc(OC)c1 (configuration not stated) was tested, and the EC50 was > 11 µM (inactive).
For Cc1ccccc1N1C(=O)NC(=O)/C(=C\c2cc(C)n(C)c2C)C1=O, the EC50 was > 11 µM (inactive).
COc1cc(C2C(C#N)=C(N)OC3=C2C(=O)CC(C)(C)C3)c([N+](=O)[O-])cc1OC (configuration not stated) was tested, and the EC50 was > 11 µM (inactive).
With COc1ccc(/C=C/c2nc3sc4c(c3c(=O)o2)CCC4)cc1 the EC50 was > 11 µM (inactive).
In the case of N#CCC(N)=C(C#N)C#N, the EC50 is reported as > 11 µM (inactive).
With O/C=c1\ccc2cccc3nc(C(F)(F)F)nc1c23 the EC50 was > 11 µM (inactive).
For COc1cccc(NC(=O)c2ccccc2Br)c1, the EC50 was > 11 µM (inactive).
With CN1CC=C2C(C#N)=C(N)C(C#N)(C#N)C(c3cccc(Cl)c3Cl)C2C1 (configuration not stated) the EC50 was > 11 µM (inactive).
O=c1[nH]c(=O)n(-c2ccc(F)cc2)c(O)c1/C=C1\C=Nc2ccccc21 was tested, and the EC50 was > 11 µM (inactive).
With Cc1c(/C=N/NC(=O)c2cc(=O)[nH]c(=O)[nH]2)c2ccccn2c1C(=O)c1ccccc1 the EC50 was > 11 µM (inactive).
In the case of CCCNS(=O)(=O)c1ccc(CCC(=O)NCc2ccc3c(c2)OCO3)cc1, the EC50 is reported as > 11 µM (inactive).
COc1ccc(N2C(=O)/C(=C/c3ccco3)C(=O)NC2=S)cc1 was tested, and the EC50 was > 11 µM (inactive).
In the case of CCOc1ccc2ccccc2c1C1NC(=O)N(C)C(C)=C1C(=O)OCCOC (configuration not stated), the EC50 is reported as > 11 µM (inactive).
In the case of Cc1ccc(/C=C/C(=O)c2ccc(N3CCOCC3)cc2)s1, the EC50 is reported as > 11 µM (inactive).
Cc1ccccc1-c1ccc(/C=C2/SC(N3CCOCC3)=NC2=O)o1 was tested, and the EC50 was > 11 µM (inactive).
CCn1c(=N)c(S(=O)(=O)c2ccc(F)cc2)cc2c(=O)n3ccccc3nc21 was tested, and the EC50 was > 11 µM (inactive).
With CC(=O)n1c(C=Nc2ccccc2)c(O)c2ccccc21 the EC50 was > 11 µM (inactive).
With CN1CCCc2cc3c(C(F)(F)F)cc(=O)oc3nc21 the EC50 was > 11 µM (inactive).
In the case of COc1ccc(C(=O)c2sc3nc(C)cc(-c4cccs4)c3c2N)cc1OC, the EC50 is reported as > 11 µM (inactive).
For O=C1NC(=S)N(c2ccccc2)C(=O)/C1=C/c1ccco1, the EC50 was > 11 µM (inactive).
CC1=NN(C(N)=S)C(=O)C1N=Nc1ccc(S(N)(=O)=O)cc1 (configuration not stated) was tested, and the EC50 was > 11 µM (inactive).
For COc1cc(C2C(C#N)=C(N)OC3=C2C(=O)CCC3)c([N+](=O)[O-])cc1OC (configuration not stated), the EC50 was > 11 µM (inactive).
For CCOc1cc(C(c2c(C)[nH][nH]c2=O)c2c(C)[nH][nH]c2=O)cc([N+](=O)[O-])c1O, the EC50 was > 11 µM (inactive).
COC(=O)[C@H](CCSC)NC(=O)NC1CCN(Cc2ccccc2)CC1 was tested, and the EC50 was > 11 µM (inactive).
With O=c1oc2ccccc2cc1-c1nc(-c2cccs2)cs1 the EC50 was > 11 µM (inactive).
For CCN(CC)C(=O)Cn1cc(C(=O)C(=O)N2CCc3ccccc32)c2ccccc21, the EC50 was > 11 µM (inactive).
With Cc1cc(C(=O)O)ccc1-n1c(C)cc(C=C2C(=O)c3ccccc3C2=O)c1C the EC50 was > 11 µM (inactive).
O=C(O)c1cc(-n2cccc2)ccc1N1CCOCC1 was tested, and the EC50 was > 11 µM (inactive).
CCn1c2ccccc2c(=O)c2ccccc21 was tested, and the EC50 was > 11 µM (inactive).
CCOc1cc(C(c2c(C)[nH][nH]c2=O)c2c(C)[nH][nH]c2=O)ccc1O was tested, and the EC50 was > 11 µM (inactive).
With COc1ccc(CCC(=O)Nc2cccc(Cl)c2)cc1 the EC50 was > 11 µM (inactive).
In the case of CN1CCc2c(sc3c2C(=O)NC(c2ccccn2)N3)C1 (configuration not stated), the EC50 is reported as > 11 µM (inactive).
With O=c1[nH]c(=O)n(CC2CCCO2)c(O)c1/C=C1\C=Nc2ccccc21 (configuration not stated) the EC50 was > 11 µM (inactive).
With O=C(N/N=C\c1cc([N+](=O)[O-])ccc1N1CCCC1)c1ccccn1 the EC50 was > 11 µM (inactive).
Clc1cc(-c2ccc(/C=N/n3cnnc3)o2)ccc1Br was tested, and the EC50 was > 11 µM (inactive).
With O=C(Nc1ccccc1O)c1cccc(S(=O)(=O)Nc2ccccc2O)c1 the EC50 was > 11 µM (inactive).
For O=C(COC(=O)C1CCCC1)Nc1ncc(Cl)cc1Cl, the EC50 was > 11 µM (inactive).
With CCOc1ccc2c(c1)/C(=C(\C(Cl)=C(Cl)Cl)[N+](=O)[O-])N2 the EC50 was > 11 µM (inactive).
For O=C(OCCc1ccccc1)c1cc(O)c(O)c(O)c1, the EC50 was > 11 µM (inactive).
In the case of COc1cc(OC)c(C2C(C#N)=C(N)OC3=C2C(=O)CC(C)(C)C3)cc1OC (configuration not stated), the EC50 is reported as > 11 µM (inactive).
c1ccc2oc(CCc3nc4ccccc4o3)nc2c1 was tested, and the EC50 was > 11 µM (inactive).
For COc1ccc(/C=C/C(=O)c2c(O)n(CCC3=CCCCC3)c(=O)[nH]c2=O)cc1OC, the EC50 was > 11 µM (inactive).
In the case of COc1ccccc1N1C(=O)NC(=O)/C(=C/c2ccc([N+](=O)[O-])s2)C1=O, the EC50 is reported as > 11 µM (inactive).
With COc1cccc(CN2C(=O)C3(C(C#N)=C(N)OC4=C3C(=O)CCC4)c3ccccc32)c1 (configuration not stated) the EC50 was > 11 µM (inactive).
For COc1ccc(C=C2C(=O)OC(C)(C)OC2=O)cc1OC, the EC50 was > 11 µM (inactive).
CCOC(=O)c1c(-n2c(C)cc(/C=C3/C(=O)NC(=O)N(CC)C3=O)c2C)sc2c1CCCC2 was tested, and the EC50 was > 11 µM (inactive).
In the case of O=C1NC(=S)N(c2ccc(F)cc2)C(=O)/C1=C/c1ccco1, the EC50 is reported as > 11 µM (inactive).
CCOC(=O)N1CCN(C2=Nc3cccc4cccc2c34)CC1 was tested, and the EC50 was > 11 µM (inactive).
CCN(CC)c1ccc(/C=c2/sc3nnc(-c4ccccc4C)n3c2=O)cc1 was tested, and the EC50 was > 11 µM (inactive).
ClCc1nc2ccccc2n1Cc1ccccc1 was tested, and the EC50 was > 11 µM (inactive).
In the case of N=C1C(c2nc3ccccc3[nH]2)=C(O)CN1c1ccc(CC(=O)O)cc1, the EC50 is reported as > 11 µM (inactive).
CC(Cc1ccc(O)c(O)c1)C(C)Cc1ccc(O)c(O)c1 (configuration not stated) was tested, and the EC50 was > 11 µM (inactive).
O=C(N/N=C/c1cc(Cl)cc([N+](=O)[O-])c1O)c1ccccc1NS(=O)(=O)c1cccs1 was tested, and the EC50 was > 11 µM (inactive).
Cc1ccccc1C1=N/C(=C/c2cccs2)C(=O)O1 was tested, and the EC50 was > 11 µM (inactive).
In the case of Cc1ccc(N(C)S(=O)(=O)c2c(C)noc2/C=C/N(C)C)cc1, the EC50 is reported as > 11 µM (inactive).
CCOC(=O)N1CC=C2C(C#N)=C(N)C(C#N)(C#N)[C@H](c3ccsc3)[C@H]2C1 was tested, and the EC50 was > 11 µM (inactive).
With Cc1ccc[n+](-c2[nH]c(=O)sc2/C=N/NC(=O)c2ccccc2[O-])c1 the EC50 was > 11 µM (inactive).
With CCn1c(CNC(=O)c2ccc(Cl)cc2)nnc1SCC(=O)N1CCOCC1 the EC50 was > 11 µM (inactive).
For COc1ccc(N2C(=O)NC(=O)/C(=C\c3cn(C)c4ccccc34)C2=O)cc1, the EC50 was > 11 µM (inactive).
With CCCSc1nnc(N2C(=O)C(O)=C(C(=O)c3ccco3)C2c2ccccc2F)s1 (configuration not stated) the EC50 was > 11 µM (inactive).
With COc1cccc(C(=O)NNc2nc(C)cc(C)n2)c1 the EC50 was > 11 µM (inactive).
In the case of Cc1nc(S/C(=C/c2ccc(-c3ccc(C(=O)O)cc3)o2)C(=O)O)n[nH]1, the EC50 is reported as > 11 µM (inactive).
Cc1ccc2nc(-c3ccc(O)c(O)c3)cn2c1 was tested, and the EC50 was > 11 µM (inactive).
In the case of Cc1cc(/C=N/n2cnnc2)c(C)n1-c1ccc(C(=O)O)cc1, the EC50 is reported as > 11 µM (inactive).
For CCCCC1=CC2=CC(=O)C(C)(OC(=O)c3ccc(Cl)nc3)C(=O)C2=CO1 (configuration not stated), the EC50 was > 11 µM (inactive).
With Cc1nn(C(C)C(=O)N2CCOCC2)c(=O)c2nn(-c3ccccc3)c(C)c12 (configuration not stated) the EC50 was > 11 µM (inactive).
For CC1=Nc2ccc(C)cc2/C1=C/c1c(N)n2nc(CC(=O)N3CCOCC3)sc2nc1=O, the EC50 was > 11 µM (inactive).
For COc1ccc2c(c1)c1nc3ccccc3nc1n2Cc1ccc(OC)c(OC)c1, the EC50 was > 11 µM (inactive).
C1=CC2c3ccccc3NC(c3ccncc3)C2C1 (configuration not stated) was tested, and the EC50 was > 11 µM (inactive).
O=C1c2cccc3c(N4CCCCC4)ccc(c23)C(=O)N1CCO was tested, and the EC50 was > 11 µM (inactive).
O=C1CCCC2=C1Sc1ccc(Cl)cc1N2 was tested, and the EC50 was > 11 µM (inactive).
With O=C(O)c1ccc2nc(-c3ccco3)c(-c3ccco3)nc2c1 the EC50 was > 11 µM (inactive).
In the case of CC(=NC1CCCC1)c1c(C)[nH]n(-c2nc3ccccc3s2)c1=O, the EC50 is reported as > 11 µM (inactive).
In the case of Cn1cccc1/C=C1\C(=O)NC(=O)N(CCC2=CCCCC2)C1=O, the EC50 is reported as > 11 µM (inactive).
With CSc1nnc(N2C(=O)C(O)=C(C(=O)c3ccco3)C2c2ccccc2)s1 (configuration not stated) the EC50 was > 11 µM (inactive).
With COC(=O)c1ccc(-n2c(C)cc(C(=O)COC(=O)CNS(=O)(=O)c3ccc(C)cc3)c2C)cc1 the EC50 was > 11 µM (inactive).
With O=c1[nH]c(=O)n(-c2ccc(F)cc2)c(O)c1C=Nc1ccccc1N1CCCC1 the EC50 was > 11 µM (inactive).
For COc1cc(/C=N/c2oc(-c3ccccc3)cc2C#N)ccc1O, the EC50 was > 11 µM (inactive).
For COC(=O)CCC(=O)OC1(C)C(=O)C=C2C=C(c3ccsc3)OC=C2C1=O (configuration not stated), the EC50 was > 11 µM (inactive).
For CCCCCCCCCCCCCCCCn1cc[n+](C)c1, the EC50 was 9.41 µM.
CN(CC(=O)NCc1ccccn1)S(=O)(=O)c1ccc(Br)cc1 was tested, and the EC50 was > 11 µM (inactive).
O=C1c2ccccc2-c2onc3ccc(NCc4ccco4)c1c23 was tested, and the EC50 was > 11 µM (inactive).
In the case of CCCCn1c(O)c(C(=O)/C=C/c2ccc3c(c2)OCO3)c(=O)[nH]c1=O, the EC50 is reported as > 11 µM (inactive).
With Cc1cc([N+](=O)[O-])cc2c1NCC1CC=CC21 (configuration not stated) the EC50 was > 11 µM (inactive).
With NC(=O)CC(NC(=O)Cc1ccc(Cl)cc1)c1ccc(NC2CCCCCC2)c([N+](=O)[O-])c1 (configuration not stated) the EC50 was > 11 µM (inactive).
For COc1ccc(/C=C2\SC(=S)N(CCCC(=O)NC3CCCC3)C2=O)cc1OC, the EC50 was > 11 µM (inactive).
O=C1c2cccc3c(O)ccc(c23)C(=O)N1c1ccc(Cl)cc1 was tested, and the EC50 was > 11 µM (inactive).
CCN(CC)c1nc(-c2nn[nH]n2)nc(N(CC)CC)n1 was tested, and the EC50 was > 11 µM (inactive).
For NC(=S)N=Nc1ccc(NN=C(N)N)cc1, the EC50 was > 11 µM (inactive).
For Nc1cc(S(=O)(=O)O)cc([N+](=O)[O-])c1O, the EC50 was > 11 µM (inactive).
With Cc1ccc(C(=O)O)cc1-n1c(C)cc(C=O)c1C the EC50 was > 11 µM (inactive).
